In PubChem BioAssay AID248 (DTP/NCI, 2004):
Where “and” joins values, the source holds several entries; their conditions need not be identical. Equal values may be shown once. Inconclusive results and toxic doses are left out.

Test system: L1210 leukemia ip in BDF1 mice, survival T/C
Assay: NCI In Vivo Anticancer Drug Screen. Data for tumor model L1210 Leukemia (intraperitoneal) in B6D2F1 (BDF1) mice
Details: endpoint: mean survival time, higher = longer survival
Procedure, shortened: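 Value reflects the ratio of survival in compound-treated mice to survival in vehicle-treated controls, with both groups carrying the same transplanted tumor.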

In the case of CCCCOP(OCCCC)Oc1ccccc1, the T/C (dose: 50.0 mg/kg/injection, schedule: Q01DX009 (ip), vehicle: saline with Tween-80) is reported as 89 % of control, the T/C (dose: 100.0 mg/kg/injection, schedule: Q01DX009 (ip), vehicle: saline with Tween-80) is reported as 89 % of control and the T/C (dose: 100.0 mg/kg/injection, schedule: Q04DX003 (ip), vehicle: saline with Tween-80) is reported as 97 % of control. The T/C (dose: 200.0 mg/kg/injection, schedule: Q01DX009 (ip), vehicle: saline with Tween-80) was 100 % of control, the T/C (dose: 200.0 mg/kg/injection, schedule: Q04DX003 (ip), vehicle: saline with Tween-80) was 96 % of control and the T/C (dose: 400.0 mg/kg/injection, schedule: Q04DX003 (ip), vehicle: saline with Tween-80) was 103 % of control.
In the case of CSc1ncnc2c1ncn2CO, the T/C (dose: 30.0 mg/kg/injection, schedule: Q01DX009 (ip), vehicle: Klucel (hydroxypropylcellulose) (HPC)) is reported as 113 % of control, the T/C (dose: 46.0 mg/kg/injection, schedule: Q01DX009 (ip), vehicle: carboxymethylcellulose (CMC)) is reported as 122 % of control and the T/C (dose: 55.0 mg/kg/injection, schedule: Q01DX009 (ip), vehicle: saline) is reported as 119 % of control. For the same compound, the T/C (dose: 60.0 mg/kg/injection, schedule: Q01DX009 (ip), vehicle: Klucel (hydroxypropylcellulose) (HPC)) was 116 % of control, the T/C (dose: 110.0 mg/kg/injection, schedule: Q01DX001 (ip), vehicle: saline) was 115 % of control and the T/C (dose: 120.0 mg/kg/injection, schedule: Q01DX009 (ip), vehicle: Klucel (hydroxypropylcellulose) (HPC)) was 109 % of control. For the same compound, the T/C (dose: 125.0 mg/kg/injection, schedule: Q01DX009 (ip), vehicle: saline) was 164 % of control, the T/C (dose: 165.0 mg/kg/injection, schedule: Q01DX001 (ip), vehicle: saline) was 120 % of control and the T/C (dose: 250.0 mg/kg/injection, schedule: Q01DX001 (ip), vehicle: saline) was 120 % of control.
In the case of O=C(C(Cl)(Cl)Cl)C(Cl)(Cl)Cl, the T/C (dose: 75.0 mg/kg/injection, schedule: Q01DX009 (ip), vehicle: saline with Tween-80) is reported as 90 % of control, the T/C (dose: 100.0 mg/kg/injection, schedule: Q04DX002 (ip), vehicle: Klucel (hydroxypropylcellulose) (HPC)) is reported as 113 % of control and the T/C (dose: 150.0 mg/kg/injection, schedule: Q01DX009 (ip), vehicle: saline with Tween-80) is reported as 93 % of control. For the same compound, the T/C (dose: 200.0 mg/kg/injection, schedule: Q04DX002 (ip), vehicle: Klucel (hydroxypropylcellulose) (HPC)) was 113 % of control, the T/C (dose: 300.0 mg/kg/injection, schedule: Q01DX009 (ip), vehicle: saline with Tween-80) was 86 % of control and the T/C (dose: 400.0 mg/kg/injection, schedule: Q04DX002 (ip), vehicle: Klucel (hydroxypropylcellulose) (HPC)) was 87 % of control.
In the case of O=[N+]([O-])c1ccc(O)c(C2N(Cc3ccc(N(CCCl)CCCl)cc3)CCCN2Cc2ccc(N(CCCl)CCCl)cc2)c1, the T/C (dose: 50.0 mg/kg/injection, schedule: Q01DX001 (ip), vehicle: carboxymethylcellulose (CMC)) is reported as 109 % of control, the T/C (dose: 100.0 mg/kg/injection, schedule: Q01DX001 (ip), vehicle: Klucel (hydroxypropylcellulose) (HPC)) is reported as 93 % of control and the T/C (dose: 100.0 mg/kg/injection, schedule: Q01DX001 (ip), vehicle: carboxymethylcellulose (CMC)) is reported as 109 % of control. The T/C (dose: 100.0 mg/kg/injection, schedule: Q01DX009 (ip), vehicle: Klucel (hydroxypropylcellulose) (HPC)) was 93 % of control, the T/C (dose: 100.0 mg/kg/injection, schedule: Q04DX003 (ip), vehicle: Klucel (hydroxypropylcellulose) (HPC)) was 103 % of control and the T/C (dose: 200.0 mg/kg/injection, schedule: Q01DX001 (ip), vehicle: Klucel (hydroxypropylcellulose) (HPC)) was 95 % of control. The T/C (dose: 200.0 mg/kg/injection, schedule: Q01DX001 (ip), vehicle: carboxymethylcellulose (CMC)) was 118 % of control, the T/C (dose: 200.0 mg/kg/injection, schedule: Q01DX009 (ip), vehicle: Klucel (hydroxypropylcellulose) (HPC)) was 98 % of control and the T/C (dose: 200.0 mg/kg/injection, schedule: Q04DX003 (ip), vehicle: Klucel (hydroxypropylcellulose) (HPC)) was 97 % of control. For the same compound, the T/C (dose: 400.0 mg/kg/injection, schedule: Q01DX001 (ip), vehicle: Klucel (hydroxypropylcellulose) (HPC)) was 95 % of control, the T/C (dose: 400.0 mg/kg/injection, schedule: Q01DX009 (ip), vehicle: Klucel (hydroxypropylcellulose) (HPC)) was 94 % of control and the T/C (dose: 400.0 mg/kg/injection, schedule: Q04DX003 (ip), vehicle: Klucel (hydroxypropylcellulose) (HPC)) was 95 % of control.
For Cc1noc(C)c1CON, the T/C (dose: 75.0 mg/kg/injection, schedule: Q01DX001 (ip), vehicle: saline) was 100 % of control and 102 % of control, the T/C (dose: 150.0 mg/kg/injection, schedule: Q01DX001 (ip), vehicle: saline) was 105 % of control and the T/C (dose: 300.0 mg/kg/injection, schedule: Q01DX001 (ip), vehicle: saline) was 94 % of control and 91 % of control.
